Results published in article PMC8175851, “Effects of Genetic Polymorphism in CYP2D6, CYP2C19, and the Organic Cation Transporter OCT1 on Amitriptyline Pharmacokinetics in Healthy Volunteers and Depressive Disorder Patients” (Frontiers in Pharmacology, 2021).
Where two headings read alike, the source gives them in different places.

Assays:
[1] = Plasma concentrations per dose unit of AT and NT in depressive disorder patients (75 mg AT twice daily); type: in vivo, human; details: 12-hour-trough levels
Description: Briefly, 75 mg AT was administered twice daily at 12 h dosing intervals. Any drugs or dietary ingredients that might interfere with CYP2D6 or CYP2C19 metabolism were avoided whenever possible. Blood samples (12-hour-trough levels) were taken on days 0, 7, 14, 18, and 21, centrifuged, and stored at 4°C for genotyping (CYP2D6 and CYP2C19) and concentration analyses. The blood samples were subsequently stored at −20°C and later genotyped for OCT1.
The serum concentrations in depressive disorder patients were determined either by the Emit® immunoassay specific for AT and NT or a commercial high-performance liquid chromatography assay (Bio-Rad Laboratories GmbH, Feldkirchen, Germany), as described before ([Steimer et al., 2004]; [Steimer et al., 2005]).
The correlation between AT and NT plasma AUC (study in healthy volunteers) or mean plasma concentration per dose unit (study in depressive disorder patients) and OCT1, CYP2D6, and CYP2C19 genotypes were calculated using the Jonckheere-Terpstra non-parametric analysis, which takes into consideration the a priori ordering (or trend) in gene activities from zero to normal to ultra-rapid (for CYP2C19 and CYP2D6). To do so, the genotypes were categorized into 0, 1, or 2 active alleles for OCT1, into 0, 0.5, 1, 1.5, 2, 2.5, or 3 active alleles for CYP2D6, and into 0, 1, 1.5, 2, 2.5, or 3 active alleles for CYP2C19, depending on their known effects on transporter/enzyme activity. OCT1 alleles *2, *3, *4, *5 were classified as being zero active. […] A semi-quantitative gene dosage was calculated for CYP2D6, as has been described earlier ([Steimer et al., 2004]). For calculating a CYP2C19 activity score, CYP2C19*2 was regarded as zero active, CYP2C19*1 was classified as 1, and CYP2C19*17 as 1.5. Additional multiple linear regression analyses included sex, age, body mass index, and glomerular filtration rate.

[2] = Pharmacokinetics of AT and NT in healthy volunteers after a single dose of 25 mg amitriptyline; type: in vivo, human; details: human, plasma, po, 25 mg, single oral 25 mg AT; for Cmax: read-out: Cmax
Source text: In order to enrich the study sample with the less frequent functionally deficient OCT1 variants, participants were selected based on OCT1 genotype from an internal database at the Institute of Clinical Pharmacology of the University Medical Center Göttingen. All volunteers who are listed in the internal database had agreed to it and the database was approved by the ethics committee of the University of Göttingen. […] Additional subjects with heterozygous genotypes were included to provide a better understanding of the effects of specific variants and the mode of inheritance. All volunteers gave their written informed consent before participation in the study. The study was approved by the ethics committee of the University of Göttingen and the German Federal Institute for Drugs and Medical Devices (BfArM). It was registered at the clinical trials databases Clinicaltrials.gov (NCT02054299) and EudraCT (number 2012-003546-33). […] Volunteers who underwent regular drug treatments other than oral contraceptives or who suffered from any relevant chronic illness, as well as pregnant or lactating women, were not included. All subjects were healthy according to a detailed medical history, medical examination, electrocardiogram, urine status and clinical chemistry, and haematology parameters (sodium, potassium, total bilirubin, aspartate aminotransferase, alanine-aminotransferase, creatinine, C-reactive protein, thyroid-stimulating hormone, haemoglobin, erythrocyte, thrombocyte, and leucocyte counts). […] After centrifugation (13,000 rpm, 15 min, room temperature), two-thirds of the supernatant were transferred to a new reaction tube and evaporated at 40°C under nitrogen flow. The residue was reconstituted under shaking in 0.1% methanoic acid and briefly centrifuged before quantification using a Nexera UHPLC system (Shimadzu, Kyoto, Japan) coupled to an API 4000 tandem mass spectrometer (AB Sciex, Darmstadt, Germany). […] PerkinElmer, Rodgau, Germany) with a Phenomenex C18 pre-column (4 × 2 mm, Phenomenex, Aschaffenburg, Germany). […] The lower limit of quantification was 0.5 ng/ml for AT and 0.1 ng/ml for NT. […] The mass spectrometry detection parameters are listed in Supplementary Table S1. For the study in healthy volunteers, the primary endpoints were the AUCs of plasma AT and NT concentrations. Secondary endpoints were the other pharmacokinetic parameters of AT and NT, as well as heart rate, blood pressure, pupil size effects, and possible adverse events (headache, fatigue, visual or hearing impairments, restlessness, nausea, dizziness, dry mouth, tremor, as well as sensations of hypothermia and heart palpitations determined using a visual analogue scale test). Pharmacokinetic parameters were calculated by non-compartmental analysis using Phoenix 64 WinNonlin version 6.3 (Certara Inc., Princeton, NJ, United States). AUCinf of AT was calculated from the time of dosing using the linear/log trapezoidal rule and extrapolated to infinity based on the last predicted concentration and using the terminal elimination rate constant (lambda z). AUC of NT was calculated from the time of dosing until the last measurement at 48 h using the linear/log trapezoidal rule, as a decline in NT concentrations was not observed in some subjects and extrapolation to infinity thus not possible.

[3] = both sexes, healthy volunteers, 0 active OCT1 alleles (n = 12)
[4] = both sexes, healthy volunteers, 1 active OCT1 allele (n = 9)
[5] = both sexes, healthy volunteers, 2 active OCT1 alleles (n = 14)
[6] = both sexes, healthy volunteers, CYP2C19 activity score 1 (n = 5), mean
[7] = both sexes, healthy volunteers, CYP2C19 activity score 1.5 (n = 2), mean
[8] = both sexes, healthy volunteers, CYP2C19 activity score 2 (n = 16), mean
[9] = both sexes, healthy volunteers, CYP2C19 activity score 2.5 (n = 10), mean
[10] = both sexes, healthy volunteers, CYP2D6 activity 0 (n = 3), mean
[11] = both sexes, healthy volunteers, CYP2D6 activity 0.5 (n = 2), mean
[12] = both sexes, healthy volunteers, CYP2D6 activity 1 (n = 10), mean
[13] = both sexes, healthy volunteers, CYP2D6 activity 1.5 (n = 6), mean
[14] = both sexes, healthy volunteers, CYP2D6 activity 2 (n = 11), mean
[15] = both sexes, healthy volunteers, CYP2D6 activity 2.5 (n = 1), mean
[16] = both sexes, healthy volunteers, CYP2D6 activity 3 (n = 2), mean
[17] = healthy volunteers, CYP2C19 activity score 0 (n = 1), mean
[18] = healthy volunteers, CYP2C19 activity score 3 (n = 1), mean

With CNCCC=C1c2ccccc2CCc2ccccc21 [Nortriptyline, nortriptyline] the “Mean plasma concentration per dose unit” value ([1]; OCT1 genotype *1 / *1 (n 27), mean ± standard deviation) was 34.0 ± 18.3, the “Mean plasma concentration per dose unit” value ([1]; OCT1 genotype *1 / *2 (n 14), mean ± standard deviation) was 33.5 ± 14.6 and the “Mean plasma concentration per dose unit” value ([1]; OCT1 genotype *1 / *3 (n 2), mean ± standard deviation) was 34.6 ± 12.4. For the same compound, the “Mean plasma concentration per dose unit” value ([1]; OCT1 genotype *1 / *4 (n 1)) was 39.6, the “Mean plasma concentration per dose unit” value ([1]; OCT1 genotype *2 / *2 (n 3), mean ± standard deviation) was 40.6 ± 26.7 and the “Mean plasma concentration per dose unit” value ([1]; OCT1 genotype *2 / *3 (n 2), mean ± standard deviation) was 28.0 ± 13.2. For the same compound, the “Mean plasma concentration per dose unit” value ([1]; OCT1 genotype *3 / *3 (n 1)) was 29.9, the AUC(0-t) ([2]; both sexes, 35 healthy volunteers, read-out: AUC48h (range over all volunteers)) was 39.3 to 284 ng·h/mL and the AUC(0-t) ([2]; both sexes, healthy volunteers, 0 active OCT1 alleles (n = 12), read-out: AUC48h) was 90.2 ± 27.1 ng·h/mL. It also gave a Cmax [2, 3] of 2.7 ± 0.7 ng/mL, an AUC(0-t) ([2]; both sexes, healthy volunteers, 1 active OCT1 allele (n = 9), read-out: AUC48h) of 88.3 ± 32.2 ng·h/mL and a Cmax [2, 4] of 2.6 ± 0.9 ng/mL. It also gave an AUC(0-t) ([2]; both sexes, healthy volunteers, 2 active OCT1 alleles (n = 14), read-out: AUC48h) of 126 ± 63.5 ng·h/mL, a Cmax [2, 5] of 3.4 ± 1.4 ng/mL and an AUC(0-t) ([2]; both sexes, healthy volunteers, CYP2C19 activity score 1 (n = 5), mean, read-out: AUC48h) of 69.4 ng·h/mL. It also gave a Cmax [2, 6] of 2.1 ng/mL, an AUC(0-t) ([2]; both sexes, healthy volunteers, CYP2C19 activity score 1.5 (n = 2), mean, read-out: AUC48h) of 123 ng·h/mL and a Cmax [2, 7] of 3.5 ng/mL. It also gave an AUC(0-t) ([2]; both sexes, healthy volunteers, CYP2C19 activity score 2 (n = 16), mean, read-out: AUC48h) of 103 ng·h/mL, a Cmax [2, 8] of 3 ng/mL and an AUC(0-t) ([2]; both sexes, healthy volunteers, CYP2C19 activity score 2.5 (n = 10), mean, read-out: AUC48h) of 108 ng·h/mL. It also gave a Cmax [2, 9] of 3.1 ng/mL, an AUC(0-t) ([2]; both sexes, healthy volunteers, CYP2D6 activity 0 (n = 3), mean, read-out: AUC48h) of 145 ng·h/mL and a Cmax [2, 10] of 3.48 ng/mL. The AUC(0-t) ([2]; both sexes, healthy volunteers, CYP2D6 activity 0.5 (n = 2), mean, read-out: AUC48h) was 222 ng·h/mL, the Cmax [2, 11] was 5.54 ng/mL and the AUC(0-t) ([2]; both sexes, healthy volunteers, CYP2D6 activity 1 (n = 10), mean, read-out: AUC48h) was 104 ng·h/mL. The Cmax [2, 12] was 2.94 ng/mL, the AUC(0-t) ([2]; both sexes, healthy volunteers, CYP2D6 activity 1.5 (n = 6), mean, read-out: AUC48h) was 98.3 ng·h/mL and the Cmax [2, 13] was 2.79 ng/mL. The AUC(0-t) ([2]; both sexes, healthy volunteers, CYP2D6 activity 2 (n = 11), mean, read-out: AUC48h) was 81.8 ng·h/mL, the Cmax [2, 14] was 2.57 ng/mL and the AUC(0-t) ([2]; both sexes, healthy volunteers, CYP2D6 activity 2.5 (n = 1), mean, read-out: AUC48h) was 89.1 ng·h/mL. For the same compound, the Cmax [2, 15] was 3.11 ng/mL, the AUC(0-t) ([2]; both sexes, healthy volunteers, CYP2D6 activity 3 (n = 2), mean, read-out: AUC48h) was 71.1 ng·h/mL and the Cmax [2, 16] was 2.49 ng/mL. The Tmax [2, 3] was 6.2 ± 1.4 h, the half-life [2, 3] was 2770 ± 1460 min and the Tmax [2, 4] was 6.7 ± 1.3 h. For the same compound, the half-life [2, 4] was 3380 ± 1880 min, the Tmax [2, 5] was 11.5 ± 8.7 h and the half-life [2, 5] was 2410 ± 2290 min. For the same compound, the Tmax [2, 6] was 6 h, the half-life [2, 6] was 2890 min and the Tmax [2, 7] was 14.1 h. It also gave a half-life [2, 7] of 1510 min, a Tmax [2, 8] of 6.6 h and a half-life [2, 8] of 2860 min. It also gave a Tmax [2, 9] of 9.9 h, a half-life [2, 9] of 2650 min and a Tmax [2, 10] of 18.9 h. For the same compound, the half-life [2, 10] was 5520 min, the Tmax [2, 11] was 15.5 h and the half-life [2, 11] was 6310 min. The Tmax [2, 12] was 6.2 h, the half-life [2, 12] was 3850 min and the Tmax [2, 13] was 7 h. The half-life [2, 13] was 3110 min, the Tmax [2, 14] was 7.7 h and the half-life [2, 14] was 1790 min. For the same compound, the Tmax [2, 15] was 6 h, the half-life [2, 15] was 1500 min and the Tmax [2, 16] was 6 h. The half-life [2, 16] was 1610 min, the AUC(0-t) ([2]; both sexes, healthy volunteers, OCT1 genotype *1 / *1 (n 14), mean ± standard deviation, read-out: AUC48h) was 126 ± 63 ng·h/mL and the AUC(0-t) ([2]; both sexes, healthy volunteers, OCT1 genotype *1 / *2 (n 3), mean ± standard deviation, read-out: AUC48h) was 115 ± 24 ng·h/mL. The AUC(0-t) ([2]; both sexes, healthy volunteers, OCT1 genotype *1 / *3 (n 4), mean ± standard deviation, read-out: AUC48h) was 78 ± 34 ng·h/mL, the AUC(0-t) ([2]; both sexes, healthy volunteers, OCT1 genotype *1 / *4 (n 2), mean ± standard deviation, read-out: AUC48h) was 69 ± 17 ng·h/mL and the AUC(0-t) ([2]; both sexes, healthy volunteers, OCT1 genotype *2 / *2 (n 3), mean ± standard deviation, read-out: AUC48h) was 109 ± 45 ng·h/mL. For the same compound, the AUC(0-t) ([2]; both sexes, healthy volunteers, OCT1 genotype *2 / *3 (n 4), mean ± standard deviation, read-out: AUC48h) was 90 ± 27 ng·h/mL, the AUC(0-t) ([2]; both sexes, healthy volunteers, OCT1 genotype *2 / *5 (n 1), read-out: AUC48h) was 83 ng·h/mL and the AUC(0-t) ([2]; both sexes, healthy volunteers, OCT1 genotype *3 / *3 (n 3), mean ± standard deviation, read-out: AUC48h) was 77 ± 11 ng·h/mL. It also gave an AUC(0-t) ([2]; both sexes, healthy volunteers, OCT1 genotype *3 / *4 (n 1), read-out: AUC48h) of 78 ng·h/mL, an AUC(0-t) ([2]; healthy volunteers, CYP2C19 activity score 0 (n = 1), mean, read-out: AUC48h) of 39.3 ng·h/mL and a Cmax [2, 17] of 1.05 ng/mL. For the same compound, the AUC(0-t) ([2]; healthy volunteers, CYP2C19 activity score 3 (n = 1), mean, read-out: AUC48h) was 284 ng·h/mL, the Cmax [2, 18] was 6.5 ng/mL and the Tmax [2, 17] was 6 h. It also gave a half-life [2, 17] of 6380 min, a Tmax [2, 18] of 24.9 h and a half-life [2, 18] of 8700 min.
